The experiment addresses T1, His6-AspH315–758 (human aspartate/asparagine-β-hydroxylase, AspH) (Homo sapiens, UniProt Q12797).
T1 construct: N-Terminally His6-tagged human AspH315–758 (His6-AspH315–758) was produced in E. coli BL21 (DE3) cells; made in house; host or cells: E. coli BL21 (DE3), pET-28a(+) vector
T1 sequence (Q12797 315-758): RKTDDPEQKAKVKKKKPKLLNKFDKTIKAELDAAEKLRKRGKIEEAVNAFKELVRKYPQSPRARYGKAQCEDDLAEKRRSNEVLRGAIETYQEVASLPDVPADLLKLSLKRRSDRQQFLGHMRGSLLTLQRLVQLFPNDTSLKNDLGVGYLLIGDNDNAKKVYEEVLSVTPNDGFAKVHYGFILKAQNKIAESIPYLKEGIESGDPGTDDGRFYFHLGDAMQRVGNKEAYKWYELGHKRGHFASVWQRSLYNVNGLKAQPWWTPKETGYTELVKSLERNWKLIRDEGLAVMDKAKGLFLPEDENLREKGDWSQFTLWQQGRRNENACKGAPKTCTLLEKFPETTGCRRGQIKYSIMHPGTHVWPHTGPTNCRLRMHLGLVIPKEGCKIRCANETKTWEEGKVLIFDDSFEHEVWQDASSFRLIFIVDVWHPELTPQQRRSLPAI
The experiment in a line: SPE-MS AspH inhibition assay (LOPAC screen at fixed 20 μM and IC50 dose-response), hydroxylation of cyclic peptide hFX-CP101–119. The format is biochemical. The note with it: for Inhibition at 20 µM [%]: AspH activity, fixed compound concentration 20 μM, initial LOPAC screen, 0.5%v/v DMSO; for Plate 5 (% inhibition) / Plate 5 (% conversion): plate 5 (Pfitzer), test compounds at fixed 20 μM; for Plate 5 (% conversion): mean conversion DMSO 32.88.

Setting [1] is: LOPAC compound at 20uM, plate 3, conversion of substrate peptide.
Where [2] appears, read: LOPAC compound at fixed 20 uM, plate 1, normalised to DMSO and 2,4-PDCA controls.
Where [3] appears, read: LOPAC compound at fixed 20 uM, substrate conversion, plate 1.
[4] abbreviates: LOPAC Plate 4, compound at 20 uM, substrate conversion.
[5] abbreviates: LOPAC Plate 4, compound at 20 uM.

These results are taken from publication PMC7251097, “Aspartate/asparagine-β-hydroxylase: a high-throughput mass spectrometric assay for discovery of small molecule inhibitors” (Scientific Reports, 2020).

Counter-ions that a name gives are not always drawn. Like-named read-outs stand apart in the source and are kept apart here. Starred links: 1 amine or outer side, 2 acyl side, 3 side chain; linkers in the order of their positions; H or OH if unused. Non-standard residues stand in square brackets, D forms with d. Residues, ends and D or L forms follow the SMILES beside them. X1 = NCCCC[C@H](N)CN([C@@H](CCCCN)C(=O)[*:2])[*:1]; Tle = CC(C)(C)[C@H](N)C(=O)O

With `CCOC(=O)C1=C(C)NC(C)=C(C(=O)OC)C1c1cccc([N+](=O)[O-])c1` (stereo not drawn) [Nitrendipine], under setting [1], the “Plate 3 (% conversion)” value is recorded as 38.78%.
As for `COC(=O)Nc1nc2ccc(C(=O)c3cccs3)cc2[nH]1` [Nocodazole], the “Plate 3 (% conversion)” value was determined as 40.67%.
Turning to `O=C1OC(=O)[C@H]2[C@@H]1[C@@H]1CC[C@H]2O1` [Norcantharidin], the “Plate 3 (% conversion)” value stood at 35.60%.
For the compound `CC(Cc1ccc(O)c(O)c1)C(C)Cc1ccc(O)c(O)c1` (stereo not drawn) [Nordihydroguaiaretic acid, reference compound], the Inhibition – broadly, the relative decrease from the control value, in per cent – at 20 µM [%] was found to be 98.9%.
For the compound `COc1ccc2c(c1OC)C(=O)O[C@@H]2[C@H]1c2c(cc3c(c2OC)OCO3)CCN1C.Cl` [Noscapine hydrchloride], under setting [1], the “Plate 3 (% conversion)” value amounted to 38.14%.
The same measure, in the same setting: the result for `CC(CCc1ccccc1)NC(C)C(O)c1ccc(O)cc1` (stereo not drawn) [Nylidrin hydrochloride] reads 36.07%.
As for `Nc1nc(OCc2ccccc2)c2nc[nH]c2n1` [O6-benzylguanine], the “Plate 1 (% inhibition)” value under setting [2] is on record as -1.55%. In addition, the “Plate 1 (% conversion)” value under setting [3] is 36.39%.
In the case of `N[C@@H](COP(=O)(O)O)C(=O)O` [O-Phospho-L-serine], the “Plate 3 (% conversion)” value under setting [1] is on record as 35.30%.
For the compound `CCCCCCCCCCCCCCCCCCc1ccc(C(=O)/C=C/C(=O)O)cc1` [OBAA], the “Plate 1 (% inhibition)” value under setting [2] is -7.39%. Under setting [3], the “Plate 1 (% conversion)” value is 38.35%.
For the compound `CCCCCc1ccc(/C=C/C(=O)Nc2cc(Cl)ccc2C(=O)O)cc1` [ONO-RS-082], under setting [1], the “Plate 3 (% conversion)” value came to 29.75%.
Take `CCCN1CCC[C@@H](c2cccc(S(C)(=O)=O)c2)C1` [OSU6162]: the “Plate 5 (% inhibition)” value is 28.06% and the “Plate 5 (% conversion)” value stood at 26.77%.
Regarding `CC1COc2c(N3CCN(C)CC3)c(F)cc3c(=O)c(C(=O)O)cn1c23` (stereo not drawn) [Ofloxacin], the “Plate 3 (% conversion)” value under setting [1] is reported as 41.94%.
As for `Cc1cc2c(s1)Nc1ccccc1N=C2N1CCN(C)CC1` [Olanzapine], the “% conversion” value was determined as 42.51% and the inhibition (commonly the drop in the measured response relative to a control, in per cent) at 20 µM was -17.7%.
As for `CCCCCCCC/C=C\CCCCCCCC(=O)O` [Oleic Acid], the “Plate 3 (% conversion)” value worked out at 10.92%.
As to `Cn1cnc2c(NCc3ccccc3)nc(NCCO)nc21` [Olomoucine], the “Plate 3 (% conversion)” value under setting [1] came out at 37.63%.
`Cc1[nH]c(=O)c(C#N)cc1-c1ccc2nccn2c1.Cl` [Olprinone hydrochloride]: the “% conversion” value under setting [4] was determined as 31.06%.
As to `CCCCCCCC/C=C\CCCCCCCC(=O)NCc1ccc(O)c(OC)c1` [Olvanil], the “Plate 3 (% conversion)” value was determined as 40.29%.
For the compound `OCCN1CCN(CCCN2c3ccccc3C=Cc3ccccc32)CC1` [Opipramol dihydrochloride], under setting [2], the “Plate 1 (% inhibition)” value was -12.26%. Besides, the “Plate 1 (% conversion)” value under setting [3] was 39.99%.
For `CN(CC[C@@H](Oc1ccc(C(F)(F)F)cc1)c1ccccc1)CC(=O)[O-].[Li+]` [Org 24598 lithium salt], the “Plate 1 (% conversion)” value is on record as 40.79% and the “Plate 1 (% inhibition)” value was -14.64%.
As for `O=C(O)/C=C/C(=O)O.O=C(O)/C=C/C(=O)O.O=C(O)/C=C/C(=O)O.O=C1CCCN1CC#CCN1CCCC1.O=C1CCCN1CC#CCN1CCCC1` [Oxotremorine sesquifumarate salt], the “Plate 3 (% conversion)” value is given as 14.90%.
As to `CCN(CC)CC#CCOC(=O)C(O)(c1ccccc1)C1CCCCC1` (stereo not drawn) [Oxybutynin Chloride], the “Plate 3 (% conversion)” value under setting [1] is listed as 40.48%.
As to `Cc1cc(C(C)(C)C)c(O)c(C)c1CC1=NCCN1` [Oxymetazoline hydrochloride], the “Plate 3 (% conversion)” value under setting [1] was determined as 41.41%.
As to `C=CCc1cccc(/C=N/NC(=O)CN2CCN(Cc3ccccc3)CC2)c1O` [PAC-1, reference compound], the “Inhibition at 20 µM [%]” value was 96.1%. For the same compound, the IC50 (as a rule, the point on the concentration scale where inhibition reaches its midpoint) (50 nM His6-AspH315–758, 1.0 μM hFX-CP101–119, 3 μM 2OG, 2 μM Fe(II), 50 mM HEPES pH 7.5, 20 °C, mean ± SD, n = 2 (2,4-PDCA n = 10), read-out: IC50) was 3.53 ± 0.71 µM. The “% conversion” value under setting [4] is recorded as 3.66%.
With `Nc1ccc(CCN2CCN(c3cccc(C(F)(F)F)c3)CC2)cc1` [PAPP], the “% conversion” value worked out at 42.06%. Further, the % inhibition – broadly, the change of the read-out against control, counted positive when it falls – (20 µM) is -16.38%.
Take `Cn1c(=O)c(-c2c(Cl)cccc2Cl)cc2cnc(Nc3ccc(N4CCOCC4)cc3)nc21` [PD173952]: the “Plate 5 (% inhibition)” value worked out at 58.03% and the “Plate 5 (% conversion)” value is listed as 16.57%. The “% inhibition” value under setting [5] is given as -8.20%. Also, the “% conversion” value under setting [4] was determined as 39.27%.
As for `O=C(NOCC1CC1)c1ccc(F)c(F)c1Nc1ccc(I)cc1Cl` [PD184352], the “Plate 5 (% inhibition)” value was found to be 28.96% and the “Plate 5 (% conversion)” value worked out at 26.46%.
Turning to `COc1cccc(-c2cc(=O)c3ccccc3o2)c1N` [PD 98,059], the “% conversion” value is given as 28.37%.
Consider `Cc1cccc(C(=O)NCN2CCN(c3ccccc3C#N)CC2)c1.O=C(O)/C=C\C(=O)O` [PD 168,077 maleate], for which the “% inhibition” value under setting [5] came to 1.73%. In addition, the “% conversion” value under setting [4] was 35.88%.
For `CCOC(=O)[C@H](CC(C)C)NC(=O)[C@@H](NC(=O)[C@H](Cc1c[nH]c2ccccc12)NC(=O)[C@@H]1CCCN1C(=O)[C@H](CCCCN)NC[C@@H](N)CCCCN)C(C)(C)C` [PD-149163] (H-[X1]PW[Tle]L-OEt), the “Plate 5 (% inhibition)” value is -16.72% and the “Plate 5 (% conversion)” value is reported as 42.01%.
As for `COc1ccc(C2(O)OC(=O)C(c3ccc4c(c3)OCO4)=C2Cc2cc(OC)c(OC)c(OC)c2)cc1` (stereo not drawn) [PD-156707], the “Plate 5 (% inhibition)” value is 18.88% and the “Plate 5 (% conversion)” value worked out at 29.89%. The “% conversion” value under setting [4] is given as 36.15%. In addition, the inhibition at 20 µM (LOPAC Plate 4, compound at 20 uM, read-out: % inhibition) was found to be 0.95%.
For `CCN(CC)CCCCNc1ncc2cc(-c3c(Cl)cccc3Cl)c(NC(=O)NC(C)(C)C)nc2n1` [PD-161570], the “Plate 5 (% inhibition)” value is given as -29.14% and the “Plate 5 (% conversion)” value is listed as 46.23%. For the same compound, the “Plate 3 (% conversion)” value under setting [1] is 41.21%.
Consider `Cc1c([N+](=O)[O-])cc2[nH]c(=O)c(=O)[nH]c2c1CN1CCCC1` [PD-161989], for which the “Plate 5 (% inhibition)” value was found to be 16.45% and the “Plate 5 (% conversion)” value worked out at 30.72%.
In the case of `CCN(CC)CCOc1ccc(Nc2ncc3cc(-c4c(Cl)cccc4Cl)c(=O)n(C)c3n2)cc1.O` [PD-166285 hydrate], the “% conversion” value is 50.97%. For the same compound, the “% inhibition” value (20 µM) was -42.48%.
For `CCN(CC)CCOc1ccc(Nc2ncc3cc(-c4c(Cl)cccc4Cl)c(=O)n(C)c3n2)cc1` [PD-166285], the “Plate 5 (% inhibition)” value is on record as -31.63% and the “Plate 5 (% conversion)” value is 47.08%.
With `COc1cc(OC)cc(-c2cc3cnc(N)nc3nc2NC(=O)NC(C)(C)C)c1` [PD-166866], the “Plate 5 (% inhibition)” value is listed as -5.94% and the “Plate 5 (% conversion)” value came out at 38.34%. Further, the “% conversion” value under setting [4] is given as 36.54%.
With `Cc1cc(Nc2ncc3cc(-c4c(Cl)cccc4Cl)c(=O)n(C)c3n2)ccc1F` [PD-180970], the “Plate 5 (% inhibition)” value amounted to 46.58% and the “Plate 5 (% conversion)” value is 20.46%. For the same compound, the “Plate 1 (% inhibition)” value under setting [2] was -5.67%. The “Plate 1 (% conversion)” value under setting [3] came out at 37.77%.
As to `O=C(Nc1cccnc1)N1CCC(Cc2cccc(Oc3ccc(C(F)(F)F)cn3)c2)CC1` [PF 3845 hydrate], the “Plate 1 (% conversion)” value is on record as 45.36% and the “Plate 1 (% inhibition)” value is -28.26%.
`O=C(Nc1cccnc1)N1CCC(Cc2cccc(Oc3ccc(C(F)(F)F)cn3)c2)CC1` [PF-3845]: the “Plate 5 (% inhibition)” value is -5.26% and the “Plate 5 (% conversion)” value came out at 38.10%.
For the compound `CN(c1ccccc1CNc1nc(Nc2ccc3c(c2)CC(=O)N3)ncc1C(F)(F)F)S(C)(=O)=O.O` [PF-431396 hydrate], the “Plate 1 (% inhibition)” value under setting [2] is -15.66%. The “Plate 1 (% conversion)” value under setting [3] is 41.13%.
On to `CN(c1ccccc1CNc1nc(Nc2ccc3c(c2)CC(=O)N3)ncc1C(F)(F)F)S(C)(=O)=O` [PF-431396], for which the “Plate 5 (% inhibition)” value is listed as 35.16% and the “Plate 5 (% conversion)” value amounted to 24.35%.
On to `Cn1cc(-c2[nH]c3cc(NC(=O)[C@H](N)C4CCCCC4)cc4c3c2C=NNC4=O)cn1` [PF-477736], for which the “Plate 5 (% inhibition)” value is recorded as -92.31% and the “Plate 5 (% conversion)” value is 67.73%.
Take `CS(=O)(=O)c1cccc(CNc2nc(Nc3ccc4c(c3)CCC(=O)N4)ncc2C(F)(F)F)c1` [PF-573228]: the “Plate 5 (% inhibition)” value is given as 7.79% and the “Plate 5 (% conversion)” value stood at 33.66%.
`C[C@@H]1CCN(C(=O)N2CCCC2)C[C@@H]1N(C)c1ncnc2[nH]ccc12` [PF-956980]: the “Plate 5 (% inhibition)” value turned out to be 16.28% and the “Plate 5 (% conversion)” value is on record as 30.77%.
Turning to `N#Cc1ccc([C@H]2CCCC[C@H]2O)cc1C(F)(F)F` [PF-998425], the “Plate 5 (% conversion)” value is listed as 24.94%.
`CCc1cncnc1N1CCN(Cc2nc3ccc(C(F)(F)F)cc3[nH]2)CC1` [PF-4708671]: the “Plate 5 (% inhibition)” value came out at 2.08% and the “Plate 5 (% conversion)” value was 35.61%. In addition, under setting [4], the “% conversion” value was 41.30%.
As for `Cl.O=C1NCCc2[nH]c(-c3ccncc3)cc21` [PHA 767491 hydrochloride], under setting [2], the “Plate 1 (% inhibition)” value is listed as -17.71%. Further, the “Plate 1 (% conversion)” value under setting [3] is on record as 41.82%.
